The source of these data is patent US20180000085A1, “USE OF PICOLINAMIDE COMPOUNDS WITH FUNGICIDAL ACTIVITY” (DOW AGROSCIENCES LLC, priority 2014, published 2018).

Assay type in all cases: in vivo
One assay concerns Phakopsora pachyrhizi. As to the kind of experiment: Asian soybean rust (PHAKPA) disease control. As to conditions: 25 ppm; for PHAKPA disease control, 1DP: 1 Day Protectant; for PHAKPA disease control, 3DC: 3 Day Curative.
The next assay concerns Alternaria solani. Kind of assay: Tomato early blight (ALTESO) disease control. Details: key: A: > 80; B: ≤ 80; C: Not Tested; D: No Activity Observed in the Reported Assay. Conditions: 100 ppm, 1 Day Protectant. On the procedure:
All fungicides were evaluated using the aforementioned method for their activity vs. all target diseases, unless stated otherwise. Wheat leaf blotch and brown rust activity were also evaluated using track spray applications, in which case the fungicides were formulated as EC formulations, containing 0.1% Trycol 5941 in the spray solutions. Wheat plants (variety Yuma) were grown from seed in a greenhouse in 50% mineral soil/50% soil-less Metro mix until the first leaf was fully emerged, with 7-10 seedlings per pot. These plants were inoculated with an aqueous spore suspension of Zymoseptoria tritici either prior to or after fungicide treatments. After inoculation the plants were kept in 100% relative humidity (one day in a dark dew chamber followed by two to three days in a lighted dew chamber at 20° C.) to permit spores to germinate and infect the leaf. The plants were then transferred to a greenhouse set at 20° C. for disease to develop. When disease symptoms were fully expressed on the 1st leaves of untreated plants, infection levels were assessed on a scale of 0 to 100 percent disease severity. Percent disease control was calculated using the ratio of disease severity on treated plants relative to untreated plants. Example J: Evaluation of Fungicidal Activity: Tomato Early Blight (Alternaria solani; Bayer Code […]) Tomato plants (variety Outdoor Girl) were propagated in soil-less Metro mix, with each pot having one plant, and used when 12 to 14 days old. Test plants were inoculated with an aqueous spore suspension of Alternaria solani 24 hr after fungicide treatments. After inoculation the plants were kept in a dew room at 22° C. with 100% relative humidity for 48 h to permit spores to germinate and infect the leaf. The plants were then transferred to a growth room at 22° C. for disease to develop. Fungicide formulation, application and disease assessment on the sprayed leaves followed the procedures as described in the Example A.

The next assay relates to Rhyncosporium secalis. Kind of assay: Barley scald (RHYNSE) disease control. As to conditions: 100 ppm, 1 Day Protectant. The method, then:
All fungicides were evaluated using the aforementioned method for their activity vs. all target diseases, unless stated otherwise. Wheat leaf blotch and brown rust activity were also evaluated using track spray applications, in which case the fungicides were formulated as EC formulations, containing 0.1% Trycol 5941 in the spray solutions. Wheat plants (variety Yuma) were grown from seed in a greenhouse in 50% mineral soil/50% soil-less Metro mix until the first leaf was fully emerged, with 7-10 seedlings per pot. These plants were inoculated with an aqueous spore suspension of Zymoseptoria tritici either prior to or after fungicide treatments. After inoculation the plants were kept in 100% relative humidity (one day in a dark dew chamber followed by two to three days in a lighted dew chamber at 20° C.) to permit spores to germinate and infect the leaf. The plants were then transferred to a greenhouse set at 20° C. for disease to develop. When disease symptoms were fully expressed on the 1st leaves of untreated plants, infection levels were assessed on a scale of 0 to 100 percent disease severity. Percent disease control was calculated using the ratio of disease severity on treated plants relative to untreated plants. Example H: Evaluation of Fungicidal Activity: Barley Scald (Rhyncosporium secalis; Bayer Code […]) Barley seedlings (variety Harrington) were propagated in soil-less Metro mix, with each pot having 8 to 12 plants, and used in the test when first leaf was fully emerged. Test plants were inoculated by an aqueous spore suspension of Rhyncosporium secalis 24 hr after fungicide treatments. After inoculation the plants were kept in a dew room at 22° C. with 100% relative humidity for 48 hr. The plants were then transferred to a greenhouse set at 20° C. for disease to develop. Fungicide formulation, application and disease assessment on the sprayed leaves followed the procedures as described in the Example A.

The subject of assay [1] is Colletotrichum lagenarium. As to the kind of experiment: Cucumber anthracnose (COLLLA) disease control. Conditions: 100 ppm, 1 Day Protectant. On the procedure:
All fungicides were evaluated using the aforementioned method for their activity vs. all target diseases, unless stated otherwise. Wheat leaf blotch and brown rust activity were also evaluated using track spray applications, in which case the fungicides were formulated as EC formulations, containing 0.1% Trycol 5941 in the spray solutions. Wheat plants (variety Yuma) were grown from seed in a greenhouse in 50% mineral soil/50% soil-less Metro mix until the first leaf was fully emerged, with 7-10 seedlings per pot. These plants were inoculated with an aqueous spore suspension of Zymoseptoria tritici either prior to or after fungicide treatments. After inoculation the plants were kept in 100% relative humidity (one day in a dark dew chamber followed by two to three days in a lighted dew chamber at 20° C.) to permit spores to germinate and infect the leaf. The plants were then transferred to a greenhouse set at 20° C. for disease to develop. When disease symptoms were fully expressed on the 1st leaves of untreated plants, infection levels were assessed on a scale of 0 to 100 percent disease severity. Percent disease control was calculated using the ratio of disease severity on treated plants relative to untreated plants. Example K: Evaluation of Fungicidal Activity: Cucumber Anthracnose (Colletotrichum lagenarium; Bayer Code COLLLA) Cucumber seedlings (variety Bush Pickle) were propagated in soil-less Metro mix, with each pot having one plant, and used in the test when 12 to 14 days old. Test plants were inoculated with an aqueous spore suspension of Colletotrichum lagenarium 24 hr after fungicide treatments. After inoculation the plants were kept in a dew room at 22° C. with 100% relative humidity for 48 hr to permit spores to germinate and infect the leaf. The plants were then transferred to a growth room set at 22° C. for disease to develop. Fungicide formulation, application and disease assessment on the sprayed leaves followed the procedures as described in the Example A.

The test system of the next assay is Pyricularia oryzae. As to conditions: 100 ppm; 1 Day Protectant; rice.

As to `CCC(C)C(Oc1ccccc1)C(C)OC(=O)C(C)NC(=O)c1nccc(OC)c1OCOC(C)=O` (stereo not drawn) [Cmpd 692], in the assay with Phakopsora pachyrhizi, the “PHAKPA disease control, 1DP” value is recorded as “A (> 80)” and the “PHAKPA disease control, 3DC” value was “B (≤ 80)”. In addition, the “ALTESO disease control, 1DP” value in the assay on Alternaria solani is reported as “B (≤ 80)”. For the same molecule, in the assay with Rhyncosporium secalis, the “RHYNSE disease control, 1DP” value is recorded as “A (> 80)”. For the same molecule, in assay [1], the “COLLLA disease control, 1DP” value is reported as “A (> 80)”. In the assay with Pyricularia oryzae, the “PYRIOR disease control, 1DP” value is on record as “A (> 80)”.

For the molecule `COc1ccnc(C(=O)N[C@@H](C)C(=O)O[C@@H](C)[C@H](Oc2cc(F)cc(Cl)c2)c2ccccc2)c1OC(C)=O` [Cmpd 642], in the assay on Phakopsora pachyrhizi, the “PHAKPA disease control, 1DP” value is “B (≤ 80)” and the “PHAKPA disease control, 3DC” value is “B (≤ 80)”. Moreover, in the assay with Alternaria solani, the “ALTESO disease control, 1DP” value is “D”. Also, in the assay with Rhyncosporium secalis, the “RHYNSE disease control, 1DP” value is on record as “A (> 80)”. Further, in assay [1], the “COLLLA disease control, 1DP” value is given as “A (> 80)”. Also, in the assay on Pyricularia oryzae, the “PYRIOR disease control, 1DP” value is recorded as “A (> 80)”.

Turning to `CCC(CC)[C@@H](Oc1ccccc1)[C@H](C)OC(=O)[C@H](C)NC(=O)c1nccc(OC)c1OC(C)=O` [Cmpd 479], in the assay with Phakopsora pachyrhizi, the “PHAKPA disease control, 1DP” value is recorded as “A (> 80)” and the “PHAKPA disease control, 3DC” value is “B (≤ 80)”. Besides, the “ALTESO disease control, 1DP” value with Alternaria solani is reported as “B (≤ 80)”. The “RHYNSE disease control, 1DP” value with Rhyncosporium secalis is “B (≤ 80)”. In assay [1], the “COLLLA disease control, 1DP” value was “A (> 80)”. In addition, the “PYRIOR disease control, 1DP” value in the assay on Pyricularia oryzae is on record as “A (> 80)”.

On to `COc1ccnc(C(=O)N[C@@H](C)C(=O)O[C@@H](C)[C@H](Oc2ccccc2)C(C)C)c1OC(C)=O` [Cmpd 478], for which, in the assay with Phakopsora pachyrhizi, the “PHAKPA disease control, 1DP” value is “A (> 80)” and the “PHAKPA disease control, 3DC” value is “B (≤ 80)”. For the same molecule, in the assay on Alternaria solani, the “ALTESO disease control, 1DP” value is recorded as “B (≤ 80)”. The “RHYNSE disease control, 1DP” value with Rhyncosporium secalis is reported as “B (≤ 80)”. Besides, the “COLLLA disease control, 1DP” value in assay [1] is recorded as “B (≤ 80)”. Further, the “PYRIOR disease control, 1DP” value with Pyricularia oryzae was “A (> 80)”.

Regarding `CCC(CC)[C@@H](Oc1ccc(F)cc1)[C@H](C)OC(=O)[C@H](C)NC(=O)c1nccc(OC)c1OCOC(C)=O` [Cmpd 587], in the assay on Phakopsora pachyrhizi, the “PHAKPA disease control, 1DP” value was “A (> 80)” and the “PHAKPA disease control, 3DC” value is “B (≤ 80)”. Besides, the “ALTESO disease control, 1DP” value in the assay on Alternaria solani is reported as “D”. In addition, the “RHYNSE disease control, 1DP” value with Rhyncosporium secalis is listed as “B (≤ 80)”. Also, in assay [1], the “COLLLA disease control, 1DP” value is “A (> 80)”. The “PYRIOR disease control, 1DP” value in the assay with Pyricularia oryzae is listed as “A (> 80)”.

As for `COc1ccnc(C(=O)N[C@@H](C)C(=O)O[C@@H](C)[C@H](Oc2cccc(F)c2)c2ccccc2)c1OCOC(C)=O` [Cmpd 574], in the assay on Phakopsora pachyrhizi, the “PHAKPA disease control, 1DP” value is on record as “A (> 80)” and the “PHAKPA disease control, 3DC” value is given as “B (≤ 80)”. For the same molecule, in the assay with Alternaria solani, the “ALTESO disease control, 1DP” value is reported as “B (≤ 80)”. Moreover, the “RHYNSE disease control, 1DP” value in the assay with Rhyncosporium secalis is reported as “A (> 80)”. Besides, in assay [1], the “COLLLA disease control, 1DP” value is listed as “A (> 80)”. In addition, the “PYRIOR disease control, 1DP” value with Pyricularia oryzae was “A (> 80)”.

In the case of `CCC(CC)[C@@H](Oc1ccccc1)[C@H](C)OC(=O)[C@H](C)NC(=O)c1nccc(OC)c1OCOC(C)=O` [Cmpd 477], in the assay on Phakopsora pachyrhizi, the “PHAKPA disease control, 1DP” value was “A (> 80)” and the “PHAKPA disease control, 3DC” value is recorded as “B (≤ 80)”. Further, the “ALTESO disease control, 1DP” value with Alternaria solani is “B (≤ 80)”. Moreover, the “RHYNSE disease control, 1DP” value in the assay with Rhyncosporium secalis was “B (≤ 80)”. In assay [1], the “COLLLA disease control, 1DP” value is “A (> 80)”. Also, the “PYRIOR disease control, 1DP” value with Pyricularia oryzae is on record as “A (> 80)”.

Regarding `COc1ccnc(C(=O)N[C@@H](C)C(=O)O[C@@H](C)[C@@H](CC(C)C)Oc2ccccc2)c1OCOC(=O)C(C)C` [Cmpd 1101], in the assay on Phakopsora pachyrhizi, the “PHAKPA disease control, 1DP” value is on record as “A (> 80)” and the “PHAKPA disease control, 3DC” value was “A (> 80)”. Also, in the assay on Alternaria solani, the “ALTESO disease control, 1DP” value was “D”. The “RHYNSE disease control, 1DP” value in the assay with Rhyncosporium secalis is reported as “A (> 80)”. In assay [1], the “COLLLA disease control, 1DP” value is “A (> 80)”. The “PYRIOR disease control, 1DP” value with Pyricularia oryzae is reported as “B (≤ 80)”.

Take `C=CC(C)C(Oc1ccccc1)C(C)OC(=O)C(C)NC(=O)c1nccc(OC)c1OCOC(C)=O` (stereo not drawn) [Cmpd 694]: in the assay on Phakopsora pachyrhizi, the “PHAKPA disease control, 1DP” value was “A (> 80)” and the “PHAKPA disease control, 3DC” value is “B (≤ 80)”. Also, the “ALTESO disease control, 1DP” value in the assay with Alternaria solani is on record as “B (≤ 80)”. Also, the “RHYNSE disease control, 1DP” value with Rhyncosporium secalis is “B (≤ 80)”. Besides, in assay [1], the “COLLLA disease control, 1DP” value was “A (> 80)”. Further, the “PYRIOR disease control, 1DP” value in the assay on Pyricularia oryzae was “A (> 80)”.

With `COc1ccnc(C(=O)N[C@@H](C)C(=O)O[C@@H](C)[C@H](Oc2ccccc2)C2CCCC2)c1OCOC(C)=O` [Cmpd 556], in the assay on Phakopsora pachyrhizi, the “PHAKPA disease control, 1DP” value was “A (> 80)” and the “PHAKPA disease control, 3DC” value is listed as “B (≤ 80)”. Further, the “ALTESO disease control, 1DP” value in the assay with Alternaria solani is reported as “B (≤ 80)”. The “RHYNSE disease control, 1DP” value in the assay on Rhyncosporium secalis is on record as “B (≤ 80)”. Moreover, the “COLLLA disease control, 1DP” value in assay [1] is “A (> 80)”. Moreover, the “PYRIOR disease control, 1DP” value in the assay with Pyricularia oryzae is “A (> 80)”.

For `CC[C@@H](CCOC)[C@@H](Oc1ccccc1)[C@H](C)OC(=O)[C@H](C)NC(=O)c1nccc(OC)c1OCOC(C)=O` [Cmpd 476], in the assay on Phakopsora pachyrhizi, the “PHAKPA disease control, 1DP” value was “A (> 80)” and the “PHAKPA disease control, 3DC” value is “B (≤ 80)”. Also, the “ALTESO disease control, 1DP” value with Alternaria solani is “B (≤ 80)”. Further, the “RHYNSE disease control, 1DP” value in the assay with Rhyncosporium secalis is given as “B (≤ 80)”. Besides, in assay [1], the “COLLLA disease control, 1DP” value is reported as “B (≤ 80)”. Also, the “PYRIOR disease control, 1DP” value with Pyricularia oryzae is recorded as “A (> 80)”.
